Test results taken from paper PMC10712727, “Safety, Tolerability, and Pharmacokinetics of Senaparib, a Novel PARP1/2 Inhibitor, in Chinese Patients With Advanced Solid Tumors: A Phase I Trial” (The Oncologist, 2023).

System: advanced solid tumors
Assay: Tumor response per RECIST v1.1 (ORR, DCR, DOR, PFS), ITT population
Type: in vivo, human
From the text: The dose-expansion period included 3 populations: dose groups in which at least one patient achieved complete response (CR) or partial response (PR) per RECIST v1.1[16] and 1 dose group higher (evaluated for safety), as well as the dose group at the maximum tolerated dose (MTD)/recommended phase II dose (RP2D). Each of these groups included those patients in the respective dose-escalation group plus a planned additional 10 patients (approximately 20 patients in the MTD/RP2D group) with BRCA^mut+ solid tumors (ovarian, breast, or prostate cancer were preferred, and ovarian cancer could be BRCA wild type). Patients received senaparib monotherapy orally QD or BID (50-mg dose only) over each 3-week cycle until disease progression or unacceptable toxicity.
Safety was assessed by recording the incidence of dose-limiting toxicities (DLTs), and the incidence, nature, severity (graded per National Cancer Institute Common Terminology Criteria for Adverse Events version 4.03 [NCI CTCAE v4.03][18]), and relatedness of treatment-emergent adverse events (TEAEs). DLTs were predefined toxicities (Supplementary Table S2) recorded over the 7 days following the single-dose administration of senaparib and during the first treatment cycle (day 1-day 21) for each dose group in the dose-escalation period only. The MTD was defined as the maximum dose at which ≤1/6 patients experienced a DLT. Senaparib PK parameters were derived from blood samples collected from patients after the single administration, and at regular intervals during the first cycle of the dose-escalation and dose-expansion periods. Plasma concentrations of senaparib were determined using high-performance liquid chromatography-tandem mass spectrometry. Tumor response was assessed every 6 weeks per RECIST v1.1,[16] recording objective response rate (ORR), disease control rate (DCR), duration of response (DOR), and progression-free survival (PFS) by dose level for all patients and for those harboring BRCA^mut+ tumors.
There was no formal sample size calculation based on statistical hypothesis testing for this study; the planned enrolment was approximately 30-60 patients across the dose-escalation and dose-expansion cohorts. The actual number in the dose-escalation cohort was adjusted based on the number of dose cohorts required for the modified Fibonacci dose-escalation design and the determined MTD. Definitions for all analysis populations (safety, DLT, PK, and efficacy [intent-to-treat, ITT]) are provided in Supplementary Table S2. No statistical tests were performed; patient demographic and baseline characteristics, safety/tolerability, PK parameters, and efficacy were evaluated descriptively. ORR and DCR and their 95% CIs were calculated for each group using the exact probability method. Kaplan-Meier statistics were used to estimate DOR and PFS, and their 95% CIs for each dose group separately. Dose linearity was explored based on the single-dose data of area under the time-concentration curve (AUC) and maximum plasma concentration (Cmax) using the power model (Y = α × dose β) for the dose range 2-80 mg on a log-transformed scale. The following criterion was used to determine whether dose proportionality was met: if the (2-sided) 90% CI for β was wholly contained within the interval (1 + log(0.5)/log(r), 1 + log(2)/log(r)), then dose proportionality was supported. Here, r was defined as the ratio of the highest to lowest dose. All data analyses were carried out using SAS EG7.1 or higher or (for PK parameters) WinNonlin 7.0 or higher.

[1] = ITT, evaluable n = 44, all doses

O=C(c1cc(Cn2c(=O)[nH]c(=O)c3c(F)cccc32)ccc1F)N1CCN(c2ncccn2)CC1 [Senaparib]
Patients with a reduction from baseline in tumor size (BRCA wild-type (6/18)): 33.3% | Patients with a reduction from baseline in tumor size (BRCA^mut+ patients (13/26)): 50.0% | Median PFS (ITT population, 95% CI, 56-255 days): 167 days | DOR, Events (ITT, 2 mg QD n = 1): 0 n (%) | ORR (ITT, 2 mg QD n = 1): 0 n (%) | PFS, Events (ITT, 2 mg QD n = 1): 0 (0) n (%) | DOR, Events (ITT, 5 mg QD n = 3): 0 n (%) | ORR (ITT, 5 mg QD n = 3): 0 n (%) | PFS, Events (ITT, 5 mg QD n = 3): 2 (66.7) n (%) | PFS, Median (95% CI) (ITT, 5 mg QD n = 3): 464 (45-464) days | Complete response (ITT, 10 mg QD n = 3): 0 n (%) | DCR (ITT, 10 mg QD n = 3): 1 (33.3) n (%) | DOR, Events (ITT, 10 mg QD n = 3): 0 n (%) | ORR (ITT, 10 mg QD n = 3): 0 (0) n (%) | PFS, Events (ITT, 10 mg QD n = 3): 3 (100) n (%) | PFS, Median (95% CI) (ITT, 10 mg QD n = 3): 49 (47-88) days | Partial response (ITT, 10 mg QD n = 3): 0 n (%) | Stable disease (ITT, 10 mg QD n = 3): 1 (33.3) n (%) | Complete response (ITT, 20 mg QD n = 5): 0 n (%) | DCR (ITT, 20 mg QD n = 5): 2 (50.0) n (%) | DOR, Events (ITT, 20 mg QD n = 5): 1 (50.0) n (%) | DOR, Median (95% CI) (ITT, 20 mg QD n = 5): — (1-NR) | ORR (ITT, 20 mg QD n = 5): 2 (50.0) n (%) | PFS, Events (ITT, 20 mg QD n = 5): 3 (60.0) n (%) | PFS, Median (95% CI) (ITT, 20 mg QD n = 5): 78 (39-NR) days | Partial response (ITT, 20 mg QD n = 5): 2 (50.0) n (%) | Stable disease (ITT, 20 mg QD n = 5): 0 n (%) | Complete response (ITT, 40 mg QD n = 3): 0 n (%) | DCR (ITT, 40 mg QD n = 3): 0 (0) n (%) | DOR, Events (ITT, 40 mg QD n = 3): 0 n (%) | ORR (ITT, 40 mg QD n = 3): 0 (0) n (%) | PFS, Events (ITT, 40 mg QD n = 3): 2 (66.7) n (%) | PFS, Median (95% CI) (ITT, 40 mg QD n = 3): 49 (48-NR) days | Partial response (ITT, 40 mg QD n = 3): 0 n (%) | Stable disease (ITT, 40 mg QD n = 3): 0 n (%) | Complete response (ITT, 50 mg BID n = 4): 0 n (%) | DCR (ITT, 50 mg BID n = 4): 2 (66.7) n (%) | DOR, Events (ITT, 50 mg BID n = 4): 0 n (%) | ORR (ITT, 50 mg BID n = 4): 1 (33.3) n (%) | PFS, Events (ITT, 50 mg BID n = 4): 1 (25.0) n (%) | PFS, Median (95% CI) (ITT, 50 mg BID n = 4): — (46-NR) | Partial response (ITT, 50 mg BID n = 4): 1 (33.3) n (%) | Stable disease (ITT, 50 mg BID n = 4): 1 (33.3) n (%) | Complete response (ITT, 60 mg QD n = 5): 0 n (%) | DCR (ITT, 60 mg QD n = 5): 4 (100) n (%) | DOR, Events (ITT, 60 mg QD n = 5): 0 n (%) | ORR (ITT, 60 mg QD n = 5): 1 (25.0) n (%) | PFS, Events (ITT, 60 mg QD n = 5): 2 (40.0) n (%) | PFS, Median (95% CI) (ITT, 60 mg QD n = 5): 255 (127-NR) days | Partial response (ITT, 60 mg QD n = 5): 1 (25.0) n (%) | Stable disease (ITT, 60 mg QD n = 5): 3 (75.0) n (%) | Complete response (ITT, 80 mg QD n = 9): 0 n (%) | DCR (ITT, 80 mg QD n = 9): 6 (75.0) n (%) | DOR, Events (ITT, 80 mg QD n = 9): 4 (100) n (%) | DOR, Median (95% CI) (ITT, 80 mg QD n = 9): 144.5 (39-211) days | ORR (ITT, 80 mg QD n = 9): 4 (50.0) n (%) | PFS, Events (ITT, 80 mg QD n = 9): 8 (88.9) n (%) | PFS, Median (95% CI) (ITT, 80 mg QD n = 9): 167 (40-216) days | Partial response (ITT, 80 mg QD n = 9): 4 (50.0) n (%) | Stable disease (ITT, 80 mg QD n = 9): 2 (25.0) n (%) | Complete response (ITT, 100 mg QD n = 20): 0 n (%) | DCR (ITT, 100 mg QD n = 20): 12 (70.6) n (%) | DOR, Events (ITT, 100 mg QD n = 20): 1 (50.0) n (%) | DOR, Median (95% CI) (ITT, 100 mg QD n = 20): — (169-NR) | ORR (ITT, 100 mg QD n = 20): 2 (11.8) n (%) | PFS, Events (ITT, 100 mg QD n = 20): 8 (40.0) n (%) | PFS, Median (95% CI) (ITT, 100 mg QD n = 20): 289 (48-NR) days | Partial response (ITT, 100 mg QD n = 20): 2 (11.8) n (%) | Stable disease (ITT, 100 mg QD n = 20): 10 (58.8) n (%) | Complete response (ITT, 120 mg QD n = 4): 0 n (%) | DCR (ITT, 120 mg QD n = 4): 1 (33.3) n (%) | DOR, Events (ITT, 120 mg QD n = 4): 0 n (%) | ORR (ITT, 120 mg QD n = 4): 0 (0) n (%) | PFS, Events (ITT, 120 mg QD n = 4): 3 (75.0) n (%) | PFS, Median (95% CI) (ITT, 120 mg QD n = 4): 153 (44-258) days | Partial response (ITT, 120 mg QD n = 4): 0 n (%) | Stable disease (ITT, 120 mg QD n = 4): 1 (33.3) n (%) | Complete response (ITT, Total N = 57): 0 n (%) | DCR (ITT, Total N = 57): 28 (63.6) n (%) | DOR, Events (ITT, Total N = 57): 6 (60.0) n (%) | DOR, Median (95% CI) (ITT, Total N = 57): 169 (1-NR) days | ORR (ITT, Total N = 57): 10 (22.7) n (%) | PFS, Events (ITT, Total N = 57): 32 (56.1) n (%) | PFS, Median (95% CI) (ITT, Total N = 57): 167 (56-255) days | Partial response (ITT, Total N = 57): 10 (22.7) n (%) | Stable disease (ITT, Total N = 57): 18 (40.9) n (%) | Disease control rate (DCR) [1]: 63.6% | Objective response rate (ORR) [1]: 22.7% | Stable disease, patients [1]: 40.9% | Median DOR (ITT, 95% CI, 1-not reached): 169 days | Doses at which antitumor activity was observed (in vivo): ≥ 20 mg QD | Patients with a decrease from baseline in tumor size (non-ovarian cancers (6/20)): 30.0% | Patients with a decrease from baseline in tumor size (ovarian cancer (13/24)): 54.2% | ORR (patients with breast cancer (3/12)): 25.0% | ORR (patients with ovarian cancer (5/25)): 20.0% | ORR (patients with prostate cancer (1/4)): 25.0%
